{"source": "patent US7968526B2", "about": "“Antisense oligonucleotides directed to ribonucleotide reductase R2 and uses thereof in the treatment of cancer” (Lorus Therapeutics Inc., priority 2003, dated 2011)", "test": "Tissue distribution in the rat (CE method)", "format": "in vivo", "description": "The toxicokinetics and tissue distribution of SEQ ID NO:1 (and related oligonucleotide metabolites obtained from exonuclease-mediated chain shortening) were determined in rats and monkeys. In addition to investigating the pharmacokinetics and tissue distribution of SEQ ID NO:1, the purpose of the studies was to correlate adverse effects in the animal studies to the concentrations of SEQ ID NO:1 (and metabolites) in tissue and blood. A capillary electrophoresis (CE) method was used to measure the concentrations of SEQ ID NO:1 (and metabolites) in plasma and tissues.\nThe concentrations of SEQ ID NO:1 (and related n+1, n−1 to n−15 oligonucleotide metabolites) in the following rat and monkey tissues were measured by a validated CE method (Southwest Bio-Labs, Inc.): kidney, liver, spleen, heart, lung, bone marrow (rat), lymph nodes (monkey) and brain tissues. The tissue samples were collected from the designated animals as described in the 21-day toxicity studies: rats, administered bolus intravenous injections of SEQ ID NO:1 every other day at 2, 10, or 50 mg/kg; and monkeys administered SEQ ID NO:1 by continuous intravenous infusion at 2, 10, or 50 mg/kg/day.", "key": {"[1]": {"conditions": "10 mg/kg bolus i.v. every other day, 4 hrs post last dose"}, "[2]": {"conditions": "10 mg/kg bolus i.v. every other day, 48 hrs post first dose"}, "[3]": {"conditions": "50 mg/kg bolus i.v. every other day, 4 hrs post first dose"}, "[4]": {"conditions": "50 mg/kg bolus i.v. every other day, 4 hrs post last dose"}, "[5]": {"conditions": "50 mg/kg bolus i.v. every other day, 48 hrs post first dose"}}, "data": [{"substance": "5′-GGCTAAATCGCTCCACCAAG-3′ (all phosphorothioate, sugars by position and methylation of C not given here) [SEQ ID NO: 1, fully phosphorothioated antisense oligonucleotide that hybridizes to the coding region of R2 mRNA]", "values": [{"measurement": "Mean Concentration SEQ ID NO: 1, Spleen", "setting": "[1]", "result": 3.2, "unit": "µg/g"}, {"measurement": "Mean Concentration total metabolites (n + 1 through n − 13), Bone Marrow", "setting": "[1]", "result": 6.6, "unit": "µg/g"}, {"measurement": "Mean Concentration total metabolites (n + 1 through n − 13), Brain", "setting": "[1]", "result": "BDL (below detectable limits (1 μg/g rat; 0.2 μg/g monkey))"}, {"measurement": "Mean Concentration total metabolites (n + 1 through n − 13), Heart", "setting": "[1]", "result": 9.4, "unit": "µg/g"}, {"measurement": "Mean Concentration total metabolites (n + 1 through n − 13), Kidney", "setting": "[1]", "result": 613.5, "unit": "µg/g"}, {"measurement": "Mean Concentration total metabolites (n + 1 through n − 13), Liver", "setting": "[1]", "result": 105.9, "unit": "µg/g"}, {"measurement": "Mean Concentration total metabolites (n + 1 through n − 13), Lung", "setting": "[1]", "result": 3.3, "unit": "µg/g"}, {"measurement": "Mean Concentration total metabolites (n + 1 through n − 13), Spleen", "setting": "[1]", "result": 13.5, "unit": "µg/g"}, {"measurement": "Mean Concentration SEQ ID NO: 1, Bone Marrow", "setting": "[2]", "result": "BDL (below detectable limits (1 μg/g rat; 0.2 μg/g monkey))"}, {"measurement": "Mean Concentration SEQ ID NO: 1, Brain", "setting": "[2]", "result": "BDL (below detectable limits (1 μg/g rat; 0.2 μg/g monkey))"}, {"measurement": "Mean Concentration SEQ ID NO: 1, Heart", "setting": "[2]", "result": "BDL (below detectable limits (1 μg/g rat; 0.2 μg/g monkey))"}, {"measurement": "Mean Concentration SEQ ID NO: 1, Kidney", "setting": "[2]", "result": 13.3, "unit": "µg/g"}, {"measurement": "Mean Concentration SEQ ID NO: 1, Liver", "setting": "[2]", "result": 4.7, "unit": "µg/g"}, {"measurement": "Mean Concentration SEQ ID NO: 1, Lung", "setting": "[2]", "result": "BDL (below detectable limits (1 μg/g rat; 0.2 μg/g monkey))"}, {"measurement": "Mean Concentration SEQ ID NO: 1, Spleen", "setting": "[2]", "result": "BDL (below detectable limits (1 μg/g rat; 0.2 μg/g monkey))"}, {"measurement": "Mean Concentration total metabolites (n + 1 through n − 13), Bone Marrow", "setting": "[2]", "result": "BDL (below detectable limits (1 μg/g rat; 0.2 μg/g monkey))"}, {"measurement": "Mean Concentration total metabolites (n + 1 through n − 13), Brain", "setting": "[2]", "result": "BDL (below detectable limits (1 μg/g rat; 0.2 μg/g monkey))"}, {"measurement": "Mean Concentration total metabolites (n + 1 through n − 13), Heart", "setting": "[2]", "result": "BDL (below detectable limits (1 μg/g rat; 0.2 μg/g monkey))"}, {"measurement": "Mean Concentration total metabolites (n + 1 through n − 13), Kidney", "setting": "[2]", "result": 68.4, "unit": "µg/g"}, {"measurement": "Mean Concentration total metabolites (n + 1 through n − 13), Liver", "setting": "[2]", "result": 8.3, "unit": "µg/g"}, {"measurement": "Mean Concentration total metabolites (n + 1 through n − 13), Lung", "setting": "[2]", "result": "BDL (below detectable limits (1 μg/g rat; 0.2 μg/g monkey))"}, {"measurement": "Mean Concentration total metabolites (n + 1 through n − 13), Spleen", "setting": "[2]", "result": "BDL (below detectable limits (1 μg/g rat; 0.2 μg/g monkey))"}, {"measurement": "Mean Concentration SEQ ID NO: 1, Bone Marrow", "setting": "[3]", "result": 13.2, "unit": "µg/g"}, {"measurement": "Mean Concentration SEQ ID NO: 1, Brain", "setting": "[3]", "result": "BDL (below detectable limits (1 μg/g rat; 0.2 μg/g monkey))"}, {"measurement": "Mean Concentration SEQ ID NO: 1, Heart", "setting": "[3]", "result": 14.5, "unit": "µg/g"}, {"measurement": "Mean Concentration SEQ ID NO: 1, Kidney", "setting": "[3]", "result": 86.1, "unit": "µg/g"}, {"measurement": "Mean Concentration SEQ ID NO: 1, Liver", "setting": "[3]", "result": 51.9, "unit": "µg/g"}, {"measurement": "Mean Concentration SEQ ID NO: 1, Lung", "setting": "[3]", "result": 13.3, "unit": "µg/g"}, {"measurement": "Mean Concentration SEQ ID NO: 1, Spleen", "setting": "[3]", "result": 32.7, "unit": "µg/g"}, {"measurement": "Mean Concentration total metabolites (n + 1 through n − 13), Bone Marrow", "setting": "[3]", "result": 19.5, "unit": "µg/g"}, {"measurement": "Mean Concentration total metabolites (n + 1 through n − 13), Brain", "setting": "[3]", "result": "BDL (below detectable limits (1 μg/g rat; 0.2 μg/g monkey))"}, {"measurement": "Mean Concentration total metabolites (n + 1 through n − 13), Heart", "setting": "[3]", "result": 13.0, "unit": "µg/g"}, {"measurement": "Mean Concentration total metabolites (n + 1 through n − 13), Kidney", "setting": "[3]", "result": 187, "unit": "µg/g"}, {"measurement": "Mean Concentration total metabolites (n + 1 through n − 13), Liver", "setting": "[3]", "result": 79.9, "unit": "µg/g"}, {"measurement": "Mean Concentration total metabolites (n + 1 through n − 13), Lung", "setting": "[3]", "result": 21.8, "unit": "µg/g"}, {"measurement": "Mean Concentration total metabolites (n + 1 through n − 13), Spleen", "setting": "[3]", "result": 19.9, "unit": "µg/g"}, {"measurement": "Mean Concentration SEQ ID NO: 1, Bone Marrow", "setting": "[4]", "result": 29.9, "unit": "µg/g"}, {"measurement": "Mean Concentration SEQ ID NO: 1, Brain", "setting": "[4]", "result": "BDL (below detectable limits (1 μg/g rat; 0.2 μg/g monkey))"}, {"measurement": "Mean Concentration SEQ ID NO: 1, Heart", "setting": "[4]", "result": 20.8, "unit": "µg/g"}, {"measurement": "Mean Concentration SEQ ID NO: 1, Kidney", "setting": "[4]", "result": 286.6, "unit": "µg/g"}, {"measurement": "Mean Concentration SEQ ID NO: 1, Liver", "setting": "[4]", "result": 91.6, "unit": "µg/g"}, {"measurement": "Mean Concentration SEQ ID NO: 1, Lung", "setting": "[4]", "result": 18.2, "unit": "µg/g"}, {"measurement": "Mean Concentration SEQ ID NO: 1, Spleen", "setting": "[4]", "result": 18.4, "unit": "µg/g"}, {"measurement": "Mean Concentration total metabolites (n + 1 through n − 13), Bone Marrow", "setting": "[4]", "result": 67.4, "unit": "µg/g"}, {"measurement": "Mean Concentration total metabolites (n + 1 through n − 13), Brain", "setting": "[4]", "result": "BDL (below detectable limits (1 μg/g rat; 0.2 μg/g monkey))"}, {"measurement": "Mean Concentration total metabolites (n + 1 through n − 13), Heart", "setting": "[4]", "result": 42.5, "unit": "µg/g"}, {"measurement": "Mean Concentration total metabolites (n + 1 through n − 13), Kidney", "setting": "[4]", "result": 1373.6, "unit": "µg/g"}, {"measurement": "Mean Concentration total metabolites (n + 1 through n − 13), Liver", "setting": "[4]", "result": 279.7, "unit": "µg/g"}, {"measurement": "Mean Concentration total metabolites (n + 1 through n − 13), Lung", "setting": "[4]", "result": 30.0, "unit": "µg/g"}, {"measurement": "Mean Concentration total metabolites (n + 1 through n − 13), Spleen", "setting": "[4]", "result": 60.8, "unit": "µg/g"}, {"measurement": "Mean Concentration SEQ ID NO: 1, Bone Marrow", "setting": "[5]", "result": 2.8, "unit": "µg/g"}, {"measurement": "Mean Concentration SEQ ID NO: 1, Brain", "setting": "[5]", "result": "BDL (below detectable limits (1 μg/g rat; 0.2 μg/g monkey))"}, {"measurement": "Mean Concentration SEQ ID NO: 1, Heart", "setting": "[5]", "result": 2.5, "unit": "µg/g"}, {"measurement": "Mean Concentration SEQ ID NO: 1, Kidney", "setting": "[5]", "result": 48.2, "unit": "µg/g"}, {"measurement": "Mean Concentration SEQ ID NO: 1, Liver", "setting": "[5]", "result": 19.8, "unit": "µg/g"}, {"measurement": "Mean Concentration SEQ ID NO: 1, Lung", "setting": "[5]", "result": 2.1, "unit": "µg/g"}, {"measurement": "Mean Concentration SEQ ID NO: 1, Spleen", "setting": "[5]", "result": 1.4, "unit": "µg/g"}, {"measurement": "Mean Concentration total metabolites (n + 1 through n − 13), Bone Marrow", "setting": "[5]", "result": 4.4, "unit": "µg/g"}, {"measurement": "Mean Concentration total metabolites (n + 1 through n − 13), Brain", "setting": "[5]", "result": "BDL (below detectable limits (1 μg/g rat; 0.2 μg/g monkey))"}, {"measurement": "Mean Concentration total metabolites (n + 1 through n − 13), Heart", "setting": "[5]", "result": 7.2, "unit": "µg/g"}, {"measurement": "Mean Concentration total metabolites (n + 1 through n − 13), Kidney", "setting": "[5]", "result": 287.6, "unit": "µg/g"}, {"measurement": "Mean Concentration total metabolites (n + 1 through n − 13), Liver", "setting": "[5]", "result": 68.7, "unit": "µg/g"}, {"measurement": "Mean Concentration total metabolites (n + 1 through n − 13), Lung", "setting": "[5]", "result": 3.8, "unit": "µg/g"}, {"measurement": "Mean Concentration total metabolites (n + 1 through n − 13), Spleen", "setting": "[5]", "result": 2.2, "unit": "µg/g"}, {"measurement": "Concentrations in the brain", "setting": "lower limit for detection 1 μg/g", "result": "below the limits of detection"}]}]}
